According to patent KR20210056931A, “피리메타민을 유효성분으로 포함하는 면역 관련 질환의 치료 또는 예방용 약학 조성물” (priority 2019, dated 2021):
Values joined by “and” are separate entries in the source; they are usually repeats but may differ in a detail not shown here. Equal entries are not always repeated.

Experiments:
TNF-α [1] = test: TNF-α expression inhibition in Raw264.7, comparison with DMARDs, Experiment 2-1; format: cell-based; conditions: for TNF-α expression: 6 h pretreatment, LPS 10 ng/mL, MTX 344 nM, HCQ 610 nM, PYR 50 ng/mL, CsA 391 ng/mL, AZA 25 ng/mL, SFZ 750 ng/mL
[2] = tested on: rheumatoid arthritis model, DBA-1J Mice [류마티스 관절염 모델]; test: Paw edema in rheumatoid arthritis animal model, dose regimen study, Experiment 6; format: in vivo, mouse; conditions: for Paw edema, HL, mean / Paw edema, HR, mean / Paw edema, HL, individual animal / Paw edema, HR, individual animal: Day 14; for Paw edema, HL, individual animal / Paw edema, HR, individual animal: listed as Py
TNF-α [3] = test: TNF-α expression inhibition in Raw264.7 by treatment time, Experiment 1-2; format: cell-based; conditions: LPS 100 ng/ml
[4] = tested on: rheumatoid arthritis model, DBA-1J Mice [류마티스 관절염 모델]; test: Paw edema in rheumatoid arthritis animal model, Experiment 5; format: in vivo, mouse
TNF-α [5] = test: TNF-α expression inhibition in Raw264.7, comparison with tofacitinib, Experiment 2-2; format: cell-based; conditions: for TNF-α expression: 6 h pretreatment, LPS 10 ng/mL 16 h
[6] = tested on: rheumatoid arthritis model, DBA-1J Mice [류마티스 관절염 모델]; test: Histopathological examination in rheumatoid arthritis animal model, dose regimen study, Experiment 6; format: in vivo, mouse; conditions: Day 14

SMILES: CCc1nc(N)nc(N)c1-c1ccc(Cl)cc1 [피리메타민, Pyrimethamine]
- TNF-α expression (TNF-α [1]; 2hr): 101.3 pg/mL
- TNF-α expression (TNF-α [1]; 24hr): 963.4 pg/mL
- TNF-α expression inhibition compared with comparative examples (TNF-α [1]; drug treatment 8 h or 24 h, pyrimethamine 50 ng/ml): 비교예들에 비해 TNF-α의 발현량을 월등히 억제하였고
- Paw edema, HL, mean ([2]; G7: Py 1 mg/kg/day QD IP): 0.17 mL
- Paw edema, HR, mean ([2]; G7: Py 1 mg/kg/day QD IP): 0.17 mL
- Paw edema, HL, individual animal ([2]; G7: Py 1 mg/kg/day QD IP): 0.18 mL and 0.19 mL and 0.17 mL and 0.12 mL and 0.14 mL
- Paw edema, HR, individual animal ([2]; G7: Py 1 mg/kg/day QD IP): 0.17 mL and 0.18 mL and 0.14 mL and 0.19 mL
- Paw edema, HL, mean ([2]; G8: Py 1 mg/kg/day BID PO): 0.16 mL
- Paw edema, HR, mean ([2]; G8: Py 1 mg/kg/day BID PO): 0.17 mL
- Paw edema, HL, individual animal ([2]; G8: Py 1 mg/kg/day BID PO): 0.14 mL and 0.13 mL and 0.17 mL and 0.19 mL and 0.20 mL
- Paw edema, HR, individual animal ([2]; G8: Py 1 mg/kg/day BID PO): 0.18 mL and 0.19 mL and 0.17 mL and 0.14 mL
- Paw edema, HL, mean ([2]; G9: Py 1 mg/kg/day QD PO): 0.17 mL
- Paw edema, HR, mean ([2]; G9: Py 1 mg/kg/day QD PO): 0.18 mL
- Paw edema, HL, individual animal ([2]; G9: Py 1 mg/kg/day QD PO): 0.13 mL and 0.20 mL and 0.17 mL and 0.19 mL
- Paw edema, HR, individual animal ([2]; G9: Py 1 mg/kg/day QD PO): 0.19 mL and 0.16 mL and 0.17 mL
- Paw edema, HL, mean ([2]; G10: Py 3 mg/kg/day BID PO): 0.15 mL
- Paw edema, HR, mean ([2]; G10: Py 3 mg/kg/day BID PO): 0.16 mL
- Paw edema, HL, individual animal ([2]; G10: Py 3 mg/kg/day BID PO): 0.16 mL and 0.20 mL and 0.13 mL and 0.15 mL
- Paw edema, HR, individual animal ([2]; G10: Py 3 mg/kg/day BID PO): 0.17 mL and 0.14 mL and 0.16 mL and 0.15 mL and 0.19 mL
- Paw edema, HL, mean ([2]; G11: Py 5 mg/kg QD PO): 0.18 mL
- Paw edema, HR, mean ([2]; G11: Py 5 mg/kg QD PO): 0.18 mL
- Paw edema, HL, individual animal ([2]; G11: Py 5 mg/kg QD PO): 0.16 mL and 0.20 mL and 0.19 mL and 0.17 mL and 0.14 mL
- Paw edema, HR, individual animal ([2]; G11: Py 5 mg/kg QD PO): 0.19 mL and 0.20 mL and 0.16 mL
- Paw edema, HL, mean ([2]; G12: Py 15 mg/kg/day QD PO): 0.14 mL
- Paw edema, HR, mean ([2]; G12: Py 15 mg/kg/day QD PO): 0.14 mL
- Paw edema, HL, individual animal ([2]; G12: Py 15 mg/kg/day QD PO): 0.19 mL and 0.13 mL and 0.11 mL and 0.14 mL
- Paw edema, HR, individual animal ([2]; G12: Py 15 mg/kg/day QD PO): 0.11 mL and 0.16 mL and 0.14 mL and 0.13 mL and 0.15 mL
- Paw edema (in words) ([2]; Py 15 mg/kg/day QD PO): 피리메타민 15 mg/kg/day QD 경구투여군에서만 개선
- TNF-α expression, concentration dependence (TNF-α [3]; 2 or 50 ng/ml, 1 or 2 h): TNF-α의 발현량이 피리메타민의 농도 의존적으로 줄어드는
- TNF-α expression (TNF-α [3]; PYR 2 ng/ml, 1hr): 916.0 pg/mL
- TNF-α expression (TNF-α [3]; PYR 2 ng/ml, 2hr): 1101.2 pg/mL
- TNF-α expression (TNF-α [3]; PYR 50 ng/ml, 1hr): 686.4 pg/mL
- TNF-α expression (TNF-α [3]; PYR 50 ng/ml, 2hr): 889.0 pg/mL
- Paw edema, LEFT ([4]; Day 0, G4: Py 10 mg/kg/day PO): 0.11 ± 0.01 mL
- Paw edema, RIGHT ([4]; Day 0, G4: Py 10 mg/kg/day PO): 0.10 ± 0.00 mL
- Paw edema, LEFT ([4]; Day 0, G5: Py 30 mg/kg/day PO): 0.11 ± 0.02 mL
- Paw edema, RIGHT ([4]; Day 0, G5: Py 30 mg/kg/day PO): 0.10 ± 0.01 mL
- Paw edema, LEFT ([4]; Day 14, G4: Py 10 mg/kg/day PO): 0.15 ± 0.03 mL
- Paw edema, RIGHT ([4]; Day 14, G4: Py 10 mg/kg/day PO): 0.12 ± 0.01 mL
- Paw edema, LEFT ([4]; Day 14, G5: Py 30 mg/kg/day PO): 0.11 ± 0.03 mL
- Paw edema, RIGHT ([4]; Day 14, G5: Py 30 mg/kg/day PO): 0.11 ± 0.02 mL
- TNF-α expression (TNF-α [5]; PYR 50 ng/mL): 185.3 pg/mL
- TNF-α expression (TNF-α [5]; PYR 100 ng/mL): 53.3 pg/mL
- TNF-α expression compared with tofacitinib (TNF-α [5]; Raw264.7, LPS 10 ng/ml 16 h): 토파시티닙과 달리 TNF-α의 발현량을 직접적으로 억제
- Efficacy by histopathology compared with hydroxychloroquine and tofacitinib (in words) [6]: 히드록시클로로퀸과 토파시티닙에 비해 보다 우수한 효과
- Efficacy by histopathology compared with methotrexate (in words) [6]: 메토트렉세이트와 유사한 수준의 관절염 치료 효능
- Therapeutic efficacy by histopathology (in words) [6]: 농도 의존적으로 치료 효능을 보였다
- Bone destruction ([6]; G7: Py 1 mg/kg/day QD IP): 2.5±0.5
- Cartilage damage ([6]; G7: Py 1 mg/kg/day QD IP): 2.2±1.0
- Histopathological examination, total ([6]; G7: Py 1 mg/kg/day QD IP): 7.7±1.5
- Synovium proliferation ([6]; G7: Py 1 mg/kg/day QD IP): 3.0±0.0
- Bone destruction ([6]; G8: Py 1 mg/kg/day BID PO): 2.8±0.4
- Cartilage damage ([6]; G8: Py 1 mg/kg/day BID PO): 2.3±1.2
- Histopathological examination, total ([6]; G8: Py 1 mg/kg/day BID PO): 7.8±2.4
- Synovium proliferation ([6]; G8: Py 1 mg/kg/day BID PO): 2.7±0.8
- Bone destruction ([6]; G9: Py 1 mg/kg/day QD PO): 2.5±0.8
- Cartilage damage ([6]; G9: Py 1 mg/kg/day QD PO): 2.3±0.8
- Histopathological examination, total ([6]; G9: Py 1 mg/kg/day QD PO): 7.8±1.6
- Synovium proliferation ([6]; G9: Py 1 mg/kg/day QD PO): 3.0±0.0
- Bone destruction ([6]; G10: Py 3 mg/kg/day BID PO): 2.8±0.4
- Cartilage damage ([6]; G10: Py 3 mg/kg/day BID PO): 2.0±0.6
- Histopathological examination, total ([6]; G10: Py 3 mg/kg/day BID PO): 7.8±0.8
